Drawing on PMC9913174, “Potent Inhibition of Macropinocytosis by Niclosamide in Cancer Cells: A Novel Mechanism for the Anticancer Efficacy for the Antihelminthic” (Cancers, 2023), this text covers IC50 for one molecule.

Molecules are shown by their SMILES.

This assay addresses SLC38A5 (Homo sapiens, UniProt Q8WUX1). Briefly: inhibition of Li+-stimulated [3H]-serine uptake in HPAF-II and TXBR-100 cells (endogenous transporter). It is filed as cell-based.

Chain of SLC38A5 (Q8WUX1 whole entry): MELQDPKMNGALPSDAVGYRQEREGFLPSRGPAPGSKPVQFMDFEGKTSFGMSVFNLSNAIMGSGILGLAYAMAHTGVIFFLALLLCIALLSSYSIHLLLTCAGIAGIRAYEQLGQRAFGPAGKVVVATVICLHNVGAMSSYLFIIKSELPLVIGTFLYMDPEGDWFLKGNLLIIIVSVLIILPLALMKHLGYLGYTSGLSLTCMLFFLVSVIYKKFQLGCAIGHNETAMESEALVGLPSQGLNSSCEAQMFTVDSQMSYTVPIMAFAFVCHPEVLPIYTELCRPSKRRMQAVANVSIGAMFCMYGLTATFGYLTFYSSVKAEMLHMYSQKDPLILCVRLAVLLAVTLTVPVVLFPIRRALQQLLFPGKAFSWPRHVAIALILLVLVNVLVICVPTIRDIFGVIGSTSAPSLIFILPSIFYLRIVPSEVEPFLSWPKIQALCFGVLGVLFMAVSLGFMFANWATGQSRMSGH

`O=C(Nc1ccc([N+](=O)[O-])cc1Cl)c1cc(Cl)ccc1O` [niclosamide] registered an IC50 of 1000 to 2500 nM.
